# Source: patent US10358434B2, “2-(3-pyridinyl)-1H-benzimidazole derivative compound and medicament containing same” (NIHON MEDI-PHYSICS CO., LTD., priority 2014, dated 2019)
# Assays:
# [1] = tested on: human adrenal gland section expressing aldosterone-producing adenoma; assay: In vitro autoradiography using human adrenal adenoma; type: binding; details: section of FIG. 17(b)
# How it was run: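 Autoradiography readout: PSL in equal-sized ROIs over adenoma (B2) and normal adrenal cortex (B1), expressed as B2/B1 and decay-corrected using half-life, applied activity and plate contact time. Tissue was surgically excised human adrenal, frozen and cut at 7 μm, incubated 10 min with 5-33 kBq/mL tracer in BSA-containing PBS, then imaged after 16-20 h exposure.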
# [2] = In vivo kinetics experiment (radioactivity distribution); design: species or system Wistar male rat; details: rat i.v., mean ± SD
# How it was run: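 Tissue radioactivity (% ID/g) and adrenal-to-blood, liver, kidney, small intestine, muscle and fat ratios determined at 10, 30 and 60 min post-dose. Tracers (approximately 1 to 3.7 MBq, saline with 1 w/v % ascorbic acid) injected i.v. into caudal vein of anesthetized 9-week male Wistar rats; organs excised, weighed, counted.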
# [3] = Plasma stability evaluation (TLC analysis); type: in vitro ADME; details: 37° C., 60 minutes, TLC analysis
# How it was run: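 TLC analysis, using each compound's synthesis conditions, judged stability after methanol was added and samples were centrifuged to remove protein. Beforehand, each tracer had spent 60 minutes at 37° C in pooled heparinized normal human plasma.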
compound,measurement,setting,value
"Fc1cc2nc(-c3cncc(Cn4ccnc4)c3)n(Cc3ccc([123I])cc3)c2cc1Cl [[^123I] 605, 6-Chloro-5-fluoro-1-(4-[^123I]iodobenzyl)-2-[5-(1H-imidazol-1-ylmethyl)-3-pyridinyl]-1H-benzimidazole]",B2/B1 accumulation ratio,[1],0.94
same,"B2 (PSL value, aldosterone-producing adenoma)",[1]; site 71b,4065
same,"B1 (PSL value, normal adrenal cortex)",[1]; site 72b,4318
same,Adrenal gland/blood ratio of radioactivity accumulation,[2]; 10 min after administration,39.83 ± 1.25
same,Adrenal gland/fat ratio of radioactivity accumulation,[2]; 10 min after administration,41.90 ± 6.19
same,Adrenal gland/kidney ratio of radioactivity accumulation,[2]; 10 min after administration,2.61 ± 0.04
same,Adrenal gland/liver ratio of radioactivity accumulation,[2]; 10 min after administration,1.38 ± 0.01
same,Adrenal gland/muscle ratio of radioactivity accumulation,[2]; 10 min after administration,36.77 ± 3.87
same,Adrenal gland/small intestine ratio of radioactivity accumulation,[2]; 10 min after administration,2.44 ± 0.80
same,Radioactivity distribution Adrenal gland,[2]; 10 min after administration,5.67 ± 0.25 % ID/g
same,Radioactivity distribution Bladder (including urine),[2]; 10 min after administration,0.09 ± 0.06 % ID/g
same,Radioactivity distribution Blood,[2]; 10 min after administration,0.14 ± 0.00 % ID/g
same,Radioactivity distribution Fat,[2]; 10 min after administration,0.14 ± 0.02 % ID/g
same,Radioactivity distribution Femur,[2]; 10 min after administration,0.51 ± 0.02 % ID/g
same,Radioactivity distribution Heart,[2]; 10 min after administration,0.73 ± 0.06 % ID/g
same,Radioactivity distribution Kidney,[2]; 10 min after administration,2.17 ± 0.09 % ID/g
same,Radioactivity distribution Large intestine,[2]; 10 min after administration,0.13 ± 0.01 % ID/g
same,Radioactivity distribution Liver,[2]; 10 min after administration,4.12 ± 0.23 % ID/g
same,Radioactivity distribution Lung,[2]; 10 min after administration,1.94 ± 0.16 % ID/g
same,Radioactivity distribution Muscle (lower limbs),[2]; 10 min after administration,0.16 ± 0.01 % ID/g
same,Radioactivity distribution Remaining whole body,[2]; 10 min after administration,0.20 ± 0.01 % ID/g
same,Radioactivity distribution Small intestine,[2]; 10 min after administration,2.46 ± 0.61 % ID/g
same,Radioactivity distribution Spleen,[2]; 10 min after administration,1.08 ± 0.10 % ID/g
same,Radioactivity distribution Stomach,[2]; 10 min after administration,0.80 ± 0.23 % ID/g
same,Radioactivity distribution Testis,[2]; 10 min after administration,0.03 ± 0.00 % ID/g
same,Radioactivity distribution Whole brain,[2]; 10 min after administration,0.03 ± 0.00 % ID/g
same,Adrenal gland/blood ratio of radioactivity accumulation,[2]; 30 min after administration,26.42 ± 7.24
same,Adrenal gland/fat ratio of radioactivity accumulation,[2]; 30 min after administration,22.69 ± 9.87
same,Adrenal gland/kidney ratio of radioactivity accumulation,[2]; 30 min after administration,2.58 ± 0.55
same,Adrenal gland/liver ratio of radioactivity accumulation,[2]; 30 min after administration,1.14 ± 0.36
same,Adrenal gland/muscle ratio of radioactivity accumulation,[2]; 30 min after administration,14.44 ± 5.54
same,Adrenal gland/small intestine ratio of radioactivity accumulation,[2]; 30 min after administration,0.79 ± 0.34
same,Radioactivity distribution Adrenal gland,[2]; 30 min after administration,3.10 ± 1.06 % ID/g
same,Radioactivity distribution Bladder (including urine),[2]; 30 min after administration,0.15 ± 0.01 % ID/g
same,Radioactivity distribution Blood,[2]; 30 min after administration,0.12 ± 0.01 % ID/g
same,Radioactivity distribution Fat,[2]; 30 min after administration,0.14 ± 0.03 % ID/g
same,Radioactivity distribution Femur,[2]; 30 min after administration,0.44 ± 0.04 % ID/g
same,Radioactivity distribution Heart,[2]; 30 min after administration,0.52 ± 0.04 % ID/g
same,Radioactivity distribution Kidney,[2]; 30 min after administration,1.18 ± 0.14 % ID/g
same,Radioactivity distribution Large intestine,[2]; 30 min after administration,0.16 ± 0.01 % ID/g
same,Radioactivity distribution Liver,[2]; 30 min after administration,2.72 ± 0.12 % ID/g
same,Radioactivity distribution Lung,[2]; 30 min after administration,0.99 ± 0.10 % ID/g
same,Radioactivity distribution Muscle (lower limbs),[2]; 30 min after administration,0.22 ± 0.02 % ID/g
same,Radioactivity distribution Remaining whole body,[2]; 30 min after administration,0.21 ± 0.02 % ID/g
same,Radioactivity distribution Small intestine,[2]; 30 min after administration,3.99 ± 0.33 % ID/g
same,Radioactivity distribution Spleen,[2]; 30 min after administration,0.58 ± 0.09 % ID/g
same,Radioactivity distribution Stomach,[2]; 30 min after administration,1.38 ± 0.42 % ID/g
same,Radioactivity distribution Testis,[2]; 30 min after administration,0.03 ± 0.00 % ID/g
same,Radioactivity distribution Whole brain,[2]; 30 min after administration,0.03 ± 0.00 % ID/g
same,Adrenal gland/blood ratio of radioactivity accumulation,[2]; 60 min after administration,20.07 ± 1.94
same,Adrenal gland/fat ratio of radioactivity accumulation,[2]; 60 min after administration,10.82 ± 1.23
same,Adrenal gland/kidney ratio of radioactivity accumulation,[2]; 60 min after administration,2.05 ± 0.09
same,Adrenal gland/liver ratio of radioactivity accumulation,[2]; 60 min after administration,0.88 ± 0.05
same,Adrenal gland/muscle ratio of radioactivity accumulation,[2]; 60 min after administration,10.90 ± 0.67
same,Adrenal gland/small intestine ratio of radioactivity accumulation,[2]; 60 min after administration,0.26 ± 0.08
same,Radioactivity distribution Adrenal gland,[2]; 60 min after administration,1.70 ± 0.21 % ID/g
same,Radioactivity distribution Bladder (including urine),[2]; 60 min after administration,0.13 ± 0.05 % ID/g
same,Radioactivity distribution Blood,[2]; 60 min after administration,0.09 ± 0.02 % ID/g
same,Radioactivity distribution Fat,[2]; 60 min after administration,0.16 ± 0.02 % ID/g
same,Radioactivity distribution Femur,[2]; 60 min after administration,0.36 ± 0.03 % ID/g
same,Radioactivity distribution Heart,[2]; 60 min after administration,0.35 ± 0.09 % ID/g
same,Radioactivity distribution Kidney,[2]; 60 min after administration,0.83 ± 0.10 % ID/g
same,Radioactivity distribution Large intestine,[2]; 60 min after administration,0.19 ± 0.03 % ID/g
same,Radioactivity distribution Liver,[2]; 60 min after administration,1.93 ± 0.37 % ID/g
same,Radioactivity distribution Lung,[2]; 60 min after administration,0.56 ± 0.15 % ID/g
same,Radioactivity distribution Muscle (lower limbs),[2]; 60 min after administration,0.16 ± 0.01 % ID/g
same,Radioactivity distribution Remaining whole body,[2]; 60 min after administration,0.13 ± 0.02 % ID/g
same,Radioactivity distribution Small intestine,[2]; 60 min after administration,6.65 ± 0.98 % ID/g
same,Radioactivity distribution Spleen,[2]; 60 min after administration,0.34 ± 0.07 % ID/g
same,Radioactivity distribution Stomach,[2]; 60 min after administration,2.22 ± 0.73 % ID/g
same,Radioactivity distribution Testis,[2]; 60 min after administration,0.03 ± 0.01 % ID/g
same,Radioactivity distribution Whole brain,[2]; 60 min after administration,0.02 ± 0.01 % ID/g
same,Radiochemical purity after incubation in human plasma,[3],90%
